The numbers were not newly measured in US4203975A, “Psychopharmacological peptides suitable for therapeutic administration” (Akzona Incorporated, priority 1977, dated 1980), which cites them from elsewhere.

The conditions of data set [1]: prior art.
Data set [2] has as its system rats. Particulars: rats from which the hypophysis or the posterior lobe thereof has been removed.

With `NC(=O)CC[C@@H]1NC(=O)[C@H](Cc2ccccc2)NC(=O)[C@H](Cc2ccc(O)cc2)NC(=O)[C@@H](N)CSSC[C@@H](C(=O)N2CCC[C@H]2C(=O)N[C@@H](CCCN=C(N)N)C(=O)NCC(N)=O)NC(=O)[C@H](CC(N)=O)NC1=O` [vasopressin], the pressor activity result in data set [1] is recorded as “extremely powerful pressor activity”.

Turning to (Lys)-vasopressin zinc tannate, the “inhibition of the extinction of the conditioned flight response” value in data set [2] is on record as “capable of inhibiting the extinction of the conditioned flight response”.
